# According to ChEMBL document CHEMBL3232974, “In vivo optimization of 2,3-diaminopyrazine Rho Kinase inhibitors for the treatment of glaucoma” (Bioorg Med Chem Lett, 2014):
# Legend:
# [1] = molecular target: Rho-associated protein kinase 1 (Homo sapiens, UniProt Q13464); test: Inhibition of truncated ROCK-1 (unknown origin)
# [2] = Drug level in Dutch-Belted rabbit aqueous humor at 150 ug administered as topical ocular instillation after 30 mins by RP-HPLC analysis; format: ADME, Oryctolagus cuniculus, Aqueous humor of eyeball; conditions: topical or ocular, read-out: Drug uptake
# [3] = molecular target: Rho-associated protein kinase 2 (Homo sapiens, UniProt O75116); test: Inhibition of truncated ROCK-2 (unknown origin) after 60 mins by IMAP assay
# Chain of Rho-associated protein kinase 2 (O75116 whole entry, the tested form may be a part): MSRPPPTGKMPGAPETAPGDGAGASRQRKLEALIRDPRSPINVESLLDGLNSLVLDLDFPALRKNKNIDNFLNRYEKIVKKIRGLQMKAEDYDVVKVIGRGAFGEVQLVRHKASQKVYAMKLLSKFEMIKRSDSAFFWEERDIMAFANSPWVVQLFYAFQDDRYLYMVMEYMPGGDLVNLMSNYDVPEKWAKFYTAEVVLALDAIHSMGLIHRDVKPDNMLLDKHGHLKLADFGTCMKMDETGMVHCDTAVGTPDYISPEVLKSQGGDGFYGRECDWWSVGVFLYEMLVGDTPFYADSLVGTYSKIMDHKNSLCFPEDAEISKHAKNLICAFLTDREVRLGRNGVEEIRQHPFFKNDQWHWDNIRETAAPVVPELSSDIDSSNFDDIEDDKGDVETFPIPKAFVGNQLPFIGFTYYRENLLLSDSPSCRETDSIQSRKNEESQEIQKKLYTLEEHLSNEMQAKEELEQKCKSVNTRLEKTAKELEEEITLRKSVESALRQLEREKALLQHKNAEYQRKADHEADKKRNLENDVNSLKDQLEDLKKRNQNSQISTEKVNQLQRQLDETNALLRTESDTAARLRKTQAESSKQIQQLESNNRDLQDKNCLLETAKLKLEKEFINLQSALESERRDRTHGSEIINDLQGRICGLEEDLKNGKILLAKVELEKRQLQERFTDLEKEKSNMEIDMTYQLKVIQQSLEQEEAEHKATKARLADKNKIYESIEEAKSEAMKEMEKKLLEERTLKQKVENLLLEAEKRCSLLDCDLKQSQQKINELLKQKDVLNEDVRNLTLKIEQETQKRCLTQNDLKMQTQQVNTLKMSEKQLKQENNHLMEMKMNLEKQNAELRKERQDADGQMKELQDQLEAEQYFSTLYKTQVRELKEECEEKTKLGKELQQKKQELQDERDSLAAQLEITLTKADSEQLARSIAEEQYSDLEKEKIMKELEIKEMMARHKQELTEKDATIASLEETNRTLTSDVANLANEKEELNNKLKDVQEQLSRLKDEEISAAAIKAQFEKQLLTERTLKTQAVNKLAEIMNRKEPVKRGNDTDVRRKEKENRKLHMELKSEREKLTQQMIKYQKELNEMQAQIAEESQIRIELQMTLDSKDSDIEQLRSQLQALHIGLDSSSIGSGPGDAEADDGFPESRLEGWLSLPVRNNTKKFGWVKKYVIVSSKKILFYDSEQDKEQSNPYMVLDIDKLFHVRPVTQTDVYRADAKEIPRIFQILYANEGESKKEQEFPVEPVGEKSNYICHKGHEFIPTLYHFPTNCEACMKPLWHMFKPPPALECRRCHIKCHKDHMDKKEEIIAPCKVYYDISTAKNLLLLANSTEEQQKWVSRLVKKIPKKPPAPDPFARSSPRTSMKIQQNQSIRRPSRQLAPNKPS
# Cynomolgus monkey [4] = test: Antiglaucoma activity in cynomolgus monkey assessed as reduction in intraocular pressure at MTD administered as topical ocular dose after 6 hrs relative to control; format: functional, Macaca fascicularis, Eye; parameters: scale not given: the % may be the effect or the level left
# Cynomolgus monkey [5] = test: Toxicity in cynomolgus monkey compound administered as topical ocular dose after 6 hrs; format: organism-based, Macaca fascicularis, Eye; conditions: in vivo, topical_or_ocular
# [6] = Aqueous solubility of the compound; format: physicochemical; conditions: buffer
# Cavia porcellus [7] = organism: Cavia porcellus; test: Antiglaucoma activity in guinea pig assessed as hyperemia at 300 ug after 2 hrs relative to control; format: functional
# Cavia porcellus [8] = organism: Cavia porcellus; test: Antiglaucoma activity in guinea pig assessed as hyperemia at 100 ug after 2 hrs relative to control; format: functional
# [9] = Drug level in Dutch-Belted rabbit aqueous humor at 100 ug administered as topical ocular instillation after 30 mins by RP-HPLC analysis; format: ADME, Oryctolagus cuniculus, Aqueous humor of eyeball; conditions: topical or ocular, read-out: Drug uptake
# Cavia porcellus [10] = organism: Cavia porcellus; test: Antiglaucoma activity in guinea pig assessed as hyperemia at 30 ug after 2 hrs relative to control; format: functional
# Cavia porcellus [11] = organism: Cavia porcellus; test: Antiglaucoma activity in guinea pig assessed as lowest dose required for producing 100% hyperemia after 2 hrs; format: functional
# Homo sapiens [12] = test: Antiglaucoma activity in human assessed as reduction in intraocular pressure at 0.25% solution administered as topical ocular dose after 21 days relative to control; format: functional, Eye; parameters: scale not given: the % may be the effect or the level left
# [13] = Drug level in Dutch-Belted rabbit aqueous humor at 300 ug administered as topical ocular instillation after 30 mins by RP-HPLC analysis; format: ADME, Oryctolagus cuniculus, Aqueous humor of eyeball; conditions: topical or ocular, read-out: Drug uptake
# Homo sapiens [14] = test: Antiglaucoma activity in human assessed as reduction in intraocular pressure at 0.1% solution administered as topical ocular instillation relative to control; format: functional, Eye; parameters: scale not given: the % may be the effect or the level left
# Chain of Rho-associated protein kinase 1 (Q13464 whole entry, the tested form may be a part): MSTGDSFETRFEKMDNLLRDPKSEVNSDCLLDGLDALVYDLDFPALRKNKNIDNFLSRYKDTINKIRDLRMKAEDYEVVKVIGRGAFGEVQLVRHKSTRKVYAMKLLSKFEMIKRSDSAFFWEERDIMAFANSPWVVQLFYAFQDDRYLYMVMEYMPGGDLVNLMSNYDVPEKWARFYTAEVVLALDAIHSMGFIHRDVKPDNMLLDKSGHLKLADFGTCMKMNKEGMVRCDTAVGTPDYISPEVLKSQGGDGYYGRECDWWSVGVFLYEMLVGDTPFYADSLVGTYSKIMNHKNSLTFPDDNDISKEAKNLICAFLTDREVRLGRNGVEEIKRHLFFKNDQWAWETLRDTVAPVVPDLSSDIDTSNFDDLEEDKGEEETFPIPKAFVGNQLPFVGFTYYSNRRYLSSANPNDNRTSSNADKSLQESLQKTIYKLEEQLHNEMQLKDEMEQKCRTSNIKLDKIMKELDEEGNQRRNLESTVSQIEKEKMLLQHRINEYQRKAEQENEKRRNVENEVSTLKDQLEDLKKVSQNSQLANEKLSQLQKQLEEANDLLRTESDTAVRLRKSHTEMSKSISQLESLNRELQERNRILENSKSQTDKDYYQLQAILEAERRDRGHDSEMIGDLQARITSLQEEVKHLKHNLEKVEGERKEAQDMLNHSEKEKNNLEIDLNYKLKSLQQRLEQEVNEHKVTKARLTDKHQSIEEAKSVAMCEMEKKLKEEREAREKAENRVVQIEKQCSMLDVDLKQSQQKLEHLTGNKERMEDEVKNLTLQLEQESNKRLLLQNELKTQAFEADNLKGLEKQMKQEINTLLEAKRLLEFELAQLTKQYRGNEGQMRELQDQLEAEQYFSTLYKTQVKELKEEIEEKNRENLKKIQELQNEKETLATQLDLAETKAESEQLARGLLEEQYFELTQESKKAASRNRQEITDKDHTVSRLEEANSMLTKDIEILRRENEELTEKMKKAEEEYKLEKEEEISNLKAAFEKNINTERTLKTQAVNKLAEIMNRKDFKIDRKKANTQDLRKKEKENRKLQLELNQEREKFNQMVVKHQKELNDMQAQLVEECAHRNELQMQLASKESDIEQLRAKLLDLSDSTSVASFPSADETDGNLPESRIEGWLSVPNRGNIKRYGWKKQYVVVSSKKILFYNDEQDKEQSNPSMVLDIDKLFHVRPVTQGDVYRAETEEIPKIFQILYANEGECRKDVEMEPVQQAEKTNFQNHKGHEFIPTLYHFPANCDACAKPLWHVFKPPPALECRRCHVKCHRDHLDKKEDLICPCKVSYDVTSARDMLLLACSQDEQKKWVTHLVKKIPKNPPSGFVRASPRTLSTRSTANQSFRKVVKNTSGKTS
SMILES,IC50 [1],concentration at 0.5 h [2],IC50 [3],Activity (Cynomolgus monkey [4]),MTD (Cynomolgus monkey [5]),solubility [6],Activity (Cavia porcellus [7]),Activity (Cavia porcellus [8]),concentration at 0.5 h [9],Activity (Cavia porcellus [10]),Activity (Cavia porcellus [11]),Activity (Homo sapiens [12]),concentration at 0.5 h [13],Activity (Homo sapiens [14])
CN(C)CC(O)CN1CCN(c2nc(-c3ccncc3)cnc2N2CCCC2)CC1 (configuration not stated),288 nM,950 nM,76 nM,14%,1%,soluble,58%,,,,,,,
CC(=O)NCC(O)CN1CCN(c2nc(-c3ccncc3)cnc2N2CCCC2)CC1 (configuration not stated),350 nM,,68 nM,9%,0.33%,soluble,,42%,4800 nM,,,,,
CC(=O)NCCCN1CCN(c2nc(-c3ccncc3)cnc2N2CCCC2)CC1,346 nM,8300 nM,75 nM,24%,0.5%,soluble,,,,66%,,,,
c1nc(N2CCCC2)c(N2CCCNCC2)nc1-c1cc2cn[nH]c2cn1,203 nM,680 nM,65 nM,26%,0.33%,,,,,,30 µg,,,
c1cc2[nH]ncc2cc1-c1cncc(N2CCCNCC2)n1,105 nM,,24 nM,30%,0.33%,,,,1000 nM,,30 µg,,,
Cc1n[nH]c2ccc(-c3cncc(N4CCCNCC4)n3)cc12,140 nM,,36 nM,31%,0.33%,,,,200 nM,,,,,
CNC(CC1CCCCC1)C(=O)Nc1ccc2cnccc2c1 (configuration not stated),,,,,,,,,,,,20%,,
OCCN1CCN(c2nc(-c3ccncc3)cnc2N2CCCC2)CC1,570 nM,,39 nM,26%,1%,soluble,,33%,,,,,3800 nM,
C[C@@H](N)c1ccc(C(=O)Nc2ccnc3[nH]ccc23)cc1 [Y-39983],,,,<15%,0.1%,soluble,,,,,3 µg,,4400 nM,22%
